Test results reported in patent US20220356538A1, “HEPATITIS B VIRUS MUTANTS WITH INCREASED […] CIRCULAR DNA” (The Penn State Research Foundation, priority 2019, published 2022).

Experiments:
[1] = test system: HBV cccDNA; experiment: HBV cccDNA levels: Southern blot of protein-free DNA from HepG2 cells transfected with HBV replication plasmids; format: cell-based, Hepatitis B virus
Excerpt: (§1) FIG. 1. Effects of HBc linker mutations on cccDNA levels and NC stability. HBV replication plasmids expressing either the wild type (wt) HBc or indicated linker mutants were transfected into human hepatoma cells (HepG2). HBV DNA associated with NCs (core DNA) (lanes 1-8), or protein-free DNA (PF-DNA) (i.e., those DNA species no longer covalently attached to the viral RT protein and mostly released from NCs) (lanes 9-12) was extracted from the transfected cells and analyzed by Southern blot analysis using a radio-labeled HBV DNA probe. The core DNA shown in lanes 5-8 was extracted following prior treatment of the cell lysate with an exogenous DNase, which removes core DNA that was not protected by the capsid (i.e., from destabilized NCs). RC, rcDNA; CCC, cccDNA; SS, single stranded DNA—a reverse transcription intermediate during the synthesis of rcDNA from pgRNA.
FIG. 3. Effects of HBc linker and envelope mutations on cccDNA levels. […] HBV DNA associated with NCs (core DNA; A), or protein-free DNA (PF-DNA; B) (i.e., those DNA species no longer covalently attached to the viral RT protein and mostly released from NCs) was extracted from the transfected cells and analyzed by Southern blot analysis using a radio-labeled HBV DNA probe. […]

[2] = test system: HBV core DNA; experiment: HBV core DNA synthesis: Southern blot of NC-associated core DNA from transfected cells; format: cell-based, Hepatitis B virus
Excerpt: as §1
FIG. 4. HBc linker mutants increased HBV CCC DNA by 2-30 fold. Data are shown for LC (S141T/V148I/V149I), S141A, S141D, S141R, L143A, L143I, E145D, and TT146/147AA (a combination of T146A and T147A; aka T146A/T147A).

## L140A [Mutant L140A]
[1]
  cccDNA formation: no cccDNA was made
[2]
  HBV core DNA synthesis: blocked HBV core DNA synthesis
